Where two headings read alike, the source gives them in different places.
Assay: Plasma, vaginal secretion and vaginal tissue exposure after oral administration in mice
Type: in vivo
Details: for AUC(0-t): po
Protocol: Female CD-1 mice (n=3/time point/dose group) were given SCY-078 via oral gavage for either one, two, or eight total doses ranging from 10 to 80 mg/kg, consisting of QD (once per day) and BID (twice per day) dose regimens, with and without loading doses, as follows: • QD (Day 1): 10, 20, 40, 80 mg/kg • BID (Day 1): 10/5, 20/10, 40/20, 80/40 mg/kg • BID repeat dose (Days 1-4): 10/5, 20/10 40/20, 80/40 mg/kg on Day 1; 5, […] mg/kg BID on Days 2 to 4
Blood, vulvo-vaginal tissue and vaginal secretions were collected pre-dose, and at 1, 2, 4, 6, 8, 12, 18 and 24 hours post-dose, following the final dose administered per group. Samples were then processed, extracted via protein precipitation and analyzed for SCY-078 via LC MS/MS.

## CC(C)[C@@H](C)[C@@]1(C)CC[C@]2(C)[C@H]3CC[C@@H]4[C@@]5(COC[C@]4(C)[C@@H](OC[C@](C)(N)C(C)(C)C)[C@H](n4ncnc4-c4ccncc4)C5)C3=CC[C@@]2(C)[C@@H]1C(=O)O [SCY-078]
female, CD-1, mouse, plasma, 10 mg/kg, oral gavage, QD 10 mg/kg (Day 1), read-out: AUC0-24 Plasma
  AUC(0-t): 8330 ng·h/mL
female, CD-1, mouse, plasma, 20 mg/kg, oral gavage, QD 20 mg/kg (Day 1), read-out: AUC0-24 Plasma
  AUC(0-t): 19700 ng·h/mL
female, CD-1, mouse, plasma, 40 mg/kg, oral gavage, QD 40 mg/kg (Day 1), read-out: AUC0-24 Plasma
  AUC(0-t): 42300 ng·h/mL
female, CD-1, mouse, plasma, 80 mg/kg, oral gavage, QD 80 mg/kg (Day 1), read-out: AUC0-24 Plasma
  AUC(0-t): 75500 ng·h/mL
female, CD-1, mouse, plasma, BID regimen, 10/5-80/40 mg/kg, read-out: AUC0-24 in plasma, range over doses
  AUC(0-t): 7470 to 101000 ng·h/mL
female, CD-1, mouse, plasma, BID repeat dose regimen (Days 1-4), read-out: AUC0-24 in plasma, range over doses
  AUC(0-t): 7470 to 101000 ng·h/mL
female, CD-1, mouse, plasma, QD regimen, 10-80 mg/kg, read-out: AUC0-24 in plasma, range over doses
  AUC(0-t): 8330 to 75500 ng·h/mL
female, CD-1, mouse, plasma, oral gavage, BID 10/5 mg/kg (Day 1), read-out: AUC0-24 Plasma
  AUC(0-t): 7470 ng·h/mL
female, CD-1, mouse, plasma, oral gavage, BID 20/10 mg/kg (Day 1), read-out: AUC0-24 Plasma
  AUC(0-t): 16600 ng·h/mL
female, CD-1, mouse, plasma, oral gavage, BID 40/20 mg/kg (Day 1), read-out: AUC0-24 Plasma
  AUC(0-t): 46500 ng·h/mL
female, CD-1, mouse, plasma, oral gavage, BID 80/40 mg/kg (Day 1), read-out: AUC0-24 Plasma
  AUC(0-t): 101000 ng·h/mL
female, CD-1, mouse, plasma, oral gavage, BID repeat-dose 10/5 mg/kg (Days 1-4), read-out: AUC0-24 Plasma
  AUC(0-t): 5120 ng·h/mL
female, CD-1, mouse, plasma, oral gavage, BID repeat-dose 20/10 mg/kg (Days 1-4), read-out: AUC0-24 Plasma
  AUC(0-t): 14600 ng·h/mL
female, CD-1, mouse, plasma, oral gavage, BID repeat-dose 40/20 mg/kg (Days 1-4), read-out: AUC0-24 Plasma
  AUC(0-t): 53000 ng·h/mL
female, CD-1, mouse, plasma, oral gavage, BID repeat-dose 80/40 mg/kg (Days 1-4), read-out: AUC0-24 Plasma
  AUC(0-t): 143000 ng·h/mL
female, CD-1, mouse, vaginal secretion, 10 mg/kg, oral gavage, QD 10 mg/kg (Day 1), read-out: AUC0-24 Vaginal Secretion
  AUC(0-t): 1320 ng·h/mL
female, CD-1, mouse, vaginal secretion, 20 mg/kg, oral gavage, QD 20 mg/kg (Day 1), read-out: AUC0-24 Vaginal Secretion
  AUC(0-t): 1870 ng·h/mL
female, CD-1, mouse, vaginal secretion, 40 mg/kg, oral gavage, QD 40 mg/kg (Day 1), read-out: AUC0-24 Vaginal Secretion
  AUC(0-t): 4410 ng·h/mL
female, CD-1, mouse, vaginal secretion, 80 mg/kg, oral gavage, QD 80 mg/kg (Day 1), read-out: AUC0-24 Vaginal Secretion
  AUC(0-t): 12300 ng·h/mL
female, CD-1, mouse, vaginal secretion, oral gavage, BID 10/5 mg/kg (Day 1), read-out: AUC0-24 Vaginal Secretion
  AUC(0-t): 1550 ng·h/mL
female, CD-1, mouse, vaginal secretion, oral gavage, BID 20/10 mg/kg (Day 1), read-out: AUC0-24 Vaginal Secretion
  AUC(0-t): 4210 ng·h/mL
female, CD-1, mouse, vaginal secretion, oral gavage, BID 40/20 mg/kg (Day 1), read-out: AUC0-24 Vaginal Secretion
  AUC(0-t): 10600 ng·h/mL
female, CD-1, mouse, vaginal secretion, oral gavage, BID 80/40 mg/kg (Day 1), read-out: AUC0-24 Vaginal Secretion
  AUC(0-t): 17800 ng·h/mL
female, CD-1, mouse, vaginal secretion, oral gavage, BID repeat-dose 10/5 mg/kg (Days 1-4), read-out: AUC0-24 Vaginal Secretion
  AUC(0-t): 4320 ng·h/mL
female, CD-1, mouse, vaginal secretion, oral gavage, BID repeat-dose 20/10 mg/kg (Days 1-4), read-out: AUC0-24 Vaginal Secretion
  AUC(0-t): 8630 ng·h/mL
female, CD-1, mouse, vaginal secretion, oral gavage, BID repeat-dose 40/20 mg/kg (Days 1-4), read-out: AUC0-24 Vaginal Secretion
  AUC(0-t): 38800 ng·h/mL
female, CD-1, mouse, vaginal secretion, oral gavage, BID repeat-dose 80/40 mg/kg (Days 1-4), read-out: AUC0-24 Vaginal Secretion
  AUC(0-t): 120000 ng·h/mL
female, CD-1, mouse, vaginal secretions, BID regimen, 10/5-80/40 mg/kg, read-out: AUC0-24 in vaginal secretions, range over doses
  AUC(0-t): 1550 to 17800 ng·h/mL
female, CD-1, mouse, vaginal secretions, BID repeat dose regimen (Days 1-4), read-out: AUC0-24 in vaginal secretions, range over doses
  AUC(0-t): 4320 to 120000 ng·h/mL
female, CD-1, mouse, vaginal secretions, QD regimen, 10-80 mg/kg, read-out: AUC0-24 in vaginal secretions, range over doses
  AUC(0-t): 1320 to 12300 ng·h/mL
female, CD-1, mouse, vaginal tissue, oral, repeat-dosing, read-out: accumulation in vaginal tissue relative to plasma
  Kp: > 10
Oral gavage, BID 10/5 mg/kg (Day 1)
  AUC0-24 Vaginal Tissue: 24.6 µg·h/g
Oral gavage, BID 20/10 mg/kg (Day 1)
  AUC0-24 Vaginal Tissue: 72.9 µg·h/g
Oral gavage, BID 40/20 mg/kg (Day 1)
  AUC0-24 Vaginal Tissue: 204 µg·h/g
Oral gavage, BID 80/40 mg/kg (Day 1)
  AUC0-24 Vaginal Tissue: 337 µg·h/g
Oral gavage, BID repeat-dose 10/5 mg/kg (Days 1-4)
  AUC0-24 Vaginal Tissue: 24.4 µg·h/g
Oral gavage, BID repeat-dose 20/10 mg/kg (Days 1-4)
  AUC0-24 Vaginal Tissue: 71.6 µg·h/g
Oral gavage, BID repeat-dose 40/20 mg/kg (Days 1-4)
  AUC0-24 Vaginal Tissue: 275 µg·h/g
Oral gavage, BID repeat-dose 80/40 mg/kg (Days 1-4)
  AUC0-24 Vaginal Tissue: 1798 µg·h/g
Oral gavage, QD 10 mg/kg (Day 1)
  AUC0-24 Vaginal Tissue: 26.7 µg·h/g
Oral gavage, QD 20 mg/kg (Day 1)
  AUC0-24 Vaginal Tissue: 53.6 µg·h/g
Oral gavage, QD 40 mg/kg (Day 1)
  AUC0-24 Vaginal Tissue: 187 µg·h/g
Oral gavage, QD 80 mg/kg (Day 1)
  AUC0-24 Vaginal Tissue: 171 µg·h/g
